Measurements: article PMC8580996, “2-Oxoglutarate derivatives can selectively enhance or inhibit the activity of human oxygenases” (Nature Communications, 2021)
Where “and” joins values, the source holds several entries; their conditions need not be identical. Equal values may be shown once.

Biological target: FIH (Homo sapiens, UniProt Q9NWT6)
Test: Mechanism of FIH inhibition: 2OG kinetics at variable concentrations of 18 (Ki, Cornish-Bowden plot)
Assay type: biochemical
Design: FIH reaction rate at variable 2OG and compound 18 concentrations (Figure 5a): unit not given here
Description: Supplementary Figure 28. Determination of the FIH Kapp for 4-(3-phenylprop-1-yl)-2OG (18) (continues on […]
the following page). […]
(LAA), and 20 μM ammonium iron(II) sulfate hexahydrate (FAS, (NH4)2Fe(SO4)2·6H2O) in buffer (50 mM Tris, 50 mM NaCl, pH 7.5, 20° C). Measurement times were normalized to the first sample injection analyzed after the […]
are shown as the mean of independent triplicates (n = 3; mean ± standard deviation, SD). […]
2OG concentrations, determined in the presence of 0.5 μM 18; (e) hydroxylation rates used for the kinetic analysis; […]

FIH, sequence (Q9NWT6 whole entry): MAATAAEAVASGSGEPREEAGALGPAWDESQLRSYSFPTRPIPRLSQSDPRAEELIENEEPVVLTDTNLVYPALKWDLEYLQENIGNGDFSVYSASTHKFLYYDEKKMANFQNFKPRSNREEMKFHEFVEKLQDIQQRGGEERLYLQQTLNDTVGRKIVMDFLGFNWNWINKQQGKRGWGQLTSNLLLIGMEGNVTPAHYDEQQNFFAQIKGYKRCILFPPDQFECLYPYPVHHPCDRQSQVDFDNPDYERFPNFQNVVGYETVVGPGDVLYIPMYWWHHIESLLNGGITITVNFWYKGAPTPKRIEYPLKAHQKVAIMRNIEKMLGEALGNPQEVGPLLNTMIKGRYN

## O=C(O)CCC(=O)C(=O)O [2OG, 2-Oxoglutarate]
Absence of 18, HIF-1α788-822
  FIH Kmapp for 2OG: 0.74 ± 0.07 µM
  FIH vmaxapp for 2OG: 5.9 ± 0.1 10-3 μM·s-1

## O=C(O)C(=O)CC(CCCc1ccccc1)C(=O)O (centres unmarked) [compound 18, 4-(3-phenylpropyl)-2OG]
0.5 μM 18, 2 μM 2OG
  2OG concentration / rate, Cornish-Bowden plot (Figure 5b): 738.825 and 619.579 and 831.947
0.5 μM 18, 4 μM 2OG
  2OG concentration / rate, Cornish-Bowden plot (Figure 5b): 1161.44 and 956.709 and 1175.78
0.5 μM 18, 8 μM 2OG
  2OG concentration / rate, Cornish-Bowden plot (Figure 5b): 1892.15 and 1526.72 and 1620.09
0.5 μM 18, 16 μM 2OG
  2OG concentration / rate, Cornish-Bowden plot (Figure 5b): 2827.85 and 3158.93 and 3165.81
0.5 μM 18, 32 μM 2OG
  2OG concentration / rate, Cornish-Bowden plot (Figure 5b): 6761.04 and 5757.47 and 6079.03
0.5 μM 18, 64 μM 2OG
  2OG concentration / rate, Cornish-Bowden plot (Figure 5b): 11329.4 and 12181.2 and 11500.5
0.5 μM compound 18, 0 μM 2OG
  FIH reaction rate at variable 2OG and compound 18 concentrations (Figure 5a): 0
0.5 μM compound 18, 0.5 μM 2OG
  FIH reaction rate at variable 2OG and compound 18 concentrations (Figure 5a): 0.000919 and 0.000982 and 0.001057
0.5 μM compound 18, 1 μM 2OG
  FIH reaction rate at variable 2OG and compound 18 concentrations (Figure 5a): 0.001502 and 0.002201 and 0.001615
0.5 μM compound 18, 2 μM 2OG
  FIH reaction rate at variable 2OG and compound 18 concentrations (Figure 5a): 0.002707 and 0.003228 and 0.002404
0.5 μM compound 18, 4 μM 2OG
  FIH reaction rate at variable 2OG and compound 18 concentrations (Figure 5a): 0.003444 and 0.004181 and 0.003402
0.5 μM compound 18, 8 μM 2OG
  FIH reaction rate at variable 2OG and compound 18 concentrations (Figure 5a): 0.004228 and 0.00524 and 0.004938
0.5 μM compound 18, 16 μM 2OG
  FIH reaction rate at variable 2OG and compound 18 concentrations (Figure 5a): 0.005658 and 0.005065 and 0.005054
0.5 μM compound 18, 32 μM 2OG
  FIH reaction rate at variable 2OG and compound 18 concentrations (Figure 5a): 0.004733 and 0.005558 and 0.005264
0.5 μM compound 18, 64 μM 2OG
  FIH reaction rate at variable 2OG and compound 18 concentrations (Figure 5a): 0.005649 and 0.005254 and 0.005565
1 μM 18, 2 μM 2OG
  2OG concentration / rate, Cornish-Bowden plot (Figure 5b): 1398.6 and 985.222 and 1090.51
1 μM 18, 4 μM 2OG
  2OG concentration / rate, Cornish-Bowden plot (Figure 5b): 1161.44 and 1382.65 and 1432.15
1 μM 18, 8 μM 2OG
  2OG concentration / rate, Cornish-Bowden plot (Figure 5b): 2089.32 and 1965.12 and 2137.89
1 μM 18, 16 μM 2OG
  2OG concentration / rate, Cornish-Bowden plot (Figure 5b): 3148.99 and 3185.35 and 3256
1 μM 18, 32 μM 2OG
  2OG concentration / rate, Cornish-Bowden plot (Figure 5b): 5969.04 and 5882.35
1 μM 18, 64 μM 2OG
  2OG concentration / rate, Cornish-Bowden plot (Figure 5b): 12176.6 and 10488.4
1.0 μM compound 18, 0 μM 2OG
  FIH reaction rate at variable 2OG and compound 18 concentrations (Figure 5a): 0
1.0 μM compound 18, 0.5 μM 2OG
  FIH reaction rate at variable 2OG and compound 18 concentrations (Figure 5a): 0.000462 and 0.000537 and 0.000636
1.0 μM compound 18, 1 μM 2OG
  FIH reaction rate at variable 2OG and compound 18 concentrations (Figure 5a): 0.000809 and 0.001158 and 0.001225
1.0 μM compound 18, 2 μM 2OG
  FIH reaction rate at variable 2OG and compound 18 concentrations (Figure 5a): 0.00143 and 0.00203 and 0.001834
1.0 μM compound 18, 4 μM 2OG
  FIH reaction rate at variable 2OG and compound 18 concentrations (Figure 5a): 0.003444 and 0.002893 and 0.002793
1.0 μM compound 18, 8 μM 2OG
  FIH reaction rate at variable 2OG and compound 18 concentrations (Figure 5a): 0.003829 and 0.004071 and 0.003742
1.0 μM compound 18, 16 μM 2OG
  FIH reaction rate at variable 2OG and compound 18 concentrations (Figure 5a): 0.005081 and 0.005023 and 0.004914
1.0 μM compound 18, 32 μM 2OG
  FIH reaction rate at variable 2OG and compound 18 concentrations (Figure 5a): 0.005361 and 0.00544
1.0 μM compound 18, 64 μM 2OG
  FIH reaction rate at variable 2OG and compound 18 concentrations (Figure 5a): 0.005256 and 0.006102
2 μM 18, 2 μM 2OG
  2OG concentration / rate, Cornish-Bowden plot (Figure 5b): 2902.76 and 2272.73 and 1572.33
2 μM 18, 4 μM 2OG
  2OG concentration / rate, Cornish-Bowden plot (Figure 5b): 2503.13 and 2493.77 and 2115.28
2 μM 18, 8 μM 2OG
  2OG concentration / rate, Cornish-Bowden plot (Figure 5b): 3164.56 and 2950.94 and 2606.71
2 μM 18, 16 μM 2OG
  2OG concentration / rate, Cornish-Bowden plot (Figure 5b): 5053.7 and 4190.68 and 4087.89
2 μM 18, 32 μM 2OG
  2OG concentration / rate, Cornish-Bowden plot (Figure 5b): 7228.37 and 7157.24 and 7025.25
2 μM 18, 64 μM 2OG
  2OG concentration / rate, Cornish-Bowden plot (Figure 5b): 11617.4 and 13556.5
2.0 μM compound 18, 0 μM 2OG
  FIH reaction rate at variable 2OG and compound 18 concentrations (Figure 5a): 0
2.0 μM compound 18, 1 μM 2OG
  FIH reaction rate at variable 2OG and compound 18 concentrations (Figure 5a): 0.000474 and 0.000421 and 0.000679
2.0 μM compound 18, 2 μM 2OG
  FIH reaction rate at variable 2OG and compound 18 concentrations (Figure 5a): 0.000689 and 0.00088 and 0.001272
2.0 μM compound 18, 4 μM 2OG
  FIH reaction rate at variable 2OG and compound 18 concentrations (Figure 5a): 0.001598 and 0.001604 and 0.001891
2.0 μM compound 18, 8 μM 2OG
  FIH reaction rate at variable 2OG and compound 18 concentrations (Figure 5a): 0.002528 and 0.002711 and 0.003069
2.0 μM compound 18, 16 μM 2OG
  FIH reaction rate at variable 2OG and compound 18 concentrations (Figure 5a): 0.003166 and 0.003818 and 0.003914
2.0 μM compound 18, 32 μM 2OG
  FIH reaction rate at variable 2OG and compound 18 concentrations (Figure 5a): 0.004427 and 0.004471 and 0.004555
2.0 μM compound 18, 64 μM 2OG
  FIH reaction rate at variable 2OG and compound 18 concentrations (Figure 5a): 0.005509 and 0.004721
4 μM 18, 2 μM 2OG
  2OG concentration / rate, Cornish-Bowden plot (Figure 5b): 4319.65 and 4926.11 and 3120.12
4 μM 18, 4 μM 2OG
  2OG concentration / rate, Cornish-Bowden plot (Figure 5b): 4866.18 and 5181.35 and 3610.11
4 μM 18, 8 μM 2OG
  2OG concentration / rate, Cornish-Bowden plot (Figure 5b): 5025.13 and 6092.92
4 μM 18, 16 μM 2OG
  2OG concentration / rate, Cornish-Bowden plot (Figure 5b): 7045.35 and 7289.29 and 6153.85
4 μM 18, 32 μM 2OG
  2OG concentration / rate, Cornish-Bowden plot (Figure 5b): 9395.18 and 8886.42 and 8623.01
4 μM 18, 64 μM 2OG
  2OG concentration / rate, Cornish-Bowden plot (Figure 5b): 15241.7 and 14522.4 and 14719.4
4.0 μM compound 18, 0 μM 2OG
  FIH reaction rate at variable 2OG and compound 18 concentrations (Figure 5a): 0
4.0 μM compound 18, 2 μM 2OG
  FIH reaction rate at variable 2OG and compound 18 concentrations (Figure 5a): 0.000463 and 0.000406 and 0.000641
4.0 μM compound 18, 4 μM 2OG
  FIH reaction rate at variable 2OG and compound 18 concentrations (Figure 5a): 0.000822 and 0.000772 and 0.001108
4.0 μM compound 18, 8 μM 2OG
  FIH reaction rate at variable 2OG and compound 18 concentrations (Figure 5a): 0.001592 and 0.001313 and 0.00107
4.0 μM compound 18, 16 μM 2OG
  FIH reaction rate at variable 2OG and compound 18 concentrations (Figure 5a): 0.002271 and 0.002195 and 0.0026
4.0 μM compound 18, 32 μM 2OG
  FIH reaction rate at variable 2OG and compound 18 concentrations (Figure 5a): 0.003406 and 0.003601 and 0.003711
4.0 μM compound 18, 64 μM 2OG
  FIH reaction rate at variable 2OG and compound 18 concentrations (Figure 5a): 0.004199 and 0.004407 and 0.004348
non-linear regression, HIF-1α788–822, 2OG-competitive
  Ki: ~0.2 µM
Presence of 0.5 μM 18
  FIH Kmapp for 2OG: 2.12 ± 0.20 µM
  FIH vmaxapp for 2OG: 5.8 ± 0.1 10-3 μM·s-1
Presence of 1.0 μM 18
  FIH Kmapp for 2OG: 4.58 ± 0.34 µM
  FIH vmaxapp for 2OG: 6.2 ± 0.1 10-3 μM·s-1
Presence of 2.0 μM 18
  FIH Kmapp for 2OG: 9.62 ± 0.91 µM
  FIH vmaxapp for 2OG: 5.9 ± 0.2 10-3 μM·s-1
Presence of 4.0 μM 18
  FIH Kmapp for 2OG: 25.1 ± 2.5 µM
  FIH vmaxapp for 2OG: 6.1 ± 0.3 10-3 μM·s-1
